Drawing on patent EP0036652A2, “Cephalosporin derivatives, process for their preparation, corresponding compositions, their use in the treatment of diseases and intermediates” (F. HOFFMANN-LA ROCHE & CO. Aktiengesellschaft, priority 1980, dated 1981), this text covers MIC, LD100 and half-life for three molecules.

In brackets after ≈: the same amount, converted by molar mass.

The subject of one data set is Enterobacter cloacae. The experiment in a line: In vitro activity: minimum inhibitory concentration. In kind it is cell-based. To be noted: β-lactamase-producing strain, read-out: Mindesthemmkonzentration. The text has this: (§1) Zum Nachweis der antimikrobiellen Wirksamkeit der erwähnten Produkte wurden folgende repräsentative Vertreter getestet: • Produkt A: (6R,7R)-7-/2-(2-Amino-4-thiazolyl)-2-[(Z)-methoxyimino]acetamido/-3-/[(2,5-dihydro-6- methoxy-2-methyl-5-oxo-as-triazin-3-yl)-; thio]methyl/-8-oxo-5-thia-1-azabicyclo-[4.2.0]oct-2-en-2-carbonsäure-Natriumsalz • Produkt B: (6R,7R)-7-/2-(2-Amino-4-thiazolyl)-2-[(Z)-methoxyimino]acetamido/-3-/[(3-carboxy-1-methyl-1H-1,2,4-triazol-5-yl)thio]methyl/-8-oxo-5-thia-1-azabicyclo[4.2.0]oct-2-en-2-carbonsäure-Dinatriumsalz • Produkt C: (6R,7R)-7-[2-(2-Amino-4-thiazolyl)-2-((Z)-methoxyimino)acetamido]-3-[[[2,5-dihydro-2-methyl-5-oxo-6-[(pivaloyloxy)methoxy]-as- triazin-3-yl]thio]methyl]-[…]-1-azabicyclo[4.2.0]oct-2-en-2-carbonsäure-Natrium-. salz.
(§2) Aktivität in vitro: Mindesthemmkonzentration (µg/ml)

For a further data set, the system named is Escherichia coli. The data set is described as above. Conditions: β-lactamase-producing strain, read-out: Mindesthemmkonzentration. In kind it is cell-based.
Description: as §1, §2

A further data set concerns Haemophilus influenzae. Described as above. Conditions: read-out: Mindesthemmkonzentration. In kind it is cell-based.
Description: as §1, §2

For the next data set, the system named is Neisseria gonorrhoeae. The description is as above. In kind it is cell-based. Conditions: read-out: Mindesthemmkonzentration.
Description: as §1, §2

The test system of another data set is Proteus mirabilis. The description is as above. In kind it is cell-based. Conditions: β-lactamase-producing strain, read-out: Mindesthemmkonzentration.
Description: as §1, §2

For the next data set, the system named is Proteus vulgaris. The description is as above. In kind it is cell-based. To be noted: β-lactamase-producing strain, read-out: Mindesthemmkonzentration.
Description: as §1, §2

Data set [1] has as its system Pseudomonas aeruginosa Stamm 1. The data set is described as above. In kind it is cell-based. To be noted: STAMM1; Pseudomonas aeruginosa Stamm 1, β-lactamase-producing strain; read-out: Mindesthemmkonzentration.
Description: as §1, §2

For data set [2], the system named is Pseudomonas aeruginosa Stamm 2. Described as above. In kind it is cell-based. Conditions: STAMM2; Pseudomonas aeruginosa Stamm 2, β-lactamase-producing strain; read-out: Mindesthemmkonzentration.
Description: as §1, §2

Another data set has as its system Serratia marcescens. Described as above. In kind it is cell-based. To be noted: β-lactamase-producing strain, read-out: Mindesthemmkonzentration.
Description: as §1, §2

The subject of the next data set is Staphylococcus aureus. Described as above. Conditions: read-out: Mindesthemmkonzentration. In kind it is cell-based.
Description: as §1, §2

Another data set is described as follows: Toxicity (LD100). In kind it is in vivo.
The nature of another data set: Half-life in the rat. Details: species or system Ratte. Conditions: in vivo, 20 mg/kg, after administration of 20 mg substance per kg body weight, read-out: Halbwertzeit. The text has this: Verbindungen der Formel I, worin X die Gruppe (b) darstellt, sowie die entsprechenden Ester, Salze und Hydrate zeichnen sich durch eine lange Halbwertzeit aus, d.h. sie bleiben lange im Organismus und können dementsprechend effektiver ihre keimtötende Funktion ausüben. So zeigt z.B. das Dinatriumsalz von (6R,7R)-7-/-2-(2-Amino-4-thiazolyl)-2-[(Z)-me- thoxyimino]acetamido/-3-/[(3-carboxy-1-methyl-1H-1,2,4-triazol-5-yl)thio]methyl/-8-oxo-5-thia-1-azabieyclo[4.2.0]-oct-2-en-2-carbonsäure eine Halbwertzeit an der Ratte von 22 Min. nach Verabreichung von 20 mg Substanz pro kg Körpergewicht.

For the molecule `CO/N=C(\C(=O)N[C@@H]1C(=O)N2C(C(=O)O)=C(CSc3nc(=O)c(OC)nn3C)CS[C@H]12)c1csc(N)n1` [Produkt A, (6R,7R)-7-/2-(2-Amino-4-thiazolyl)-2-[(Z)-methoxyimino]acetamido/-3-/[(2,5-dihydro-6-methoxy-2-methyl-5-oxo-as-triazin-3-yl)- ; thio]methyl/-8-oxo-5-thia-1-azabicyclo-[4.2.0]oct-2-en-2-carbonsäure-Natriumsalz], the MIC worked out at 1.2 µg/mL (≈ 2.11 µM) in the data set with Enterobacter cloacae; 0.04 µg/mL (≈ 0.0703 µM) in the data set with Escherichia coli; 0.01 µg/mL (≈ 0.0176 µM) in the data set with Haemophilus influenzae; 0.01 µg/mL (≈ 0.0176 µM) in the data set with Neisseria gonorrhoeae; 0.04 µg/mL (≈ 0.0703 µM) in the data set on Proteus mirabilis; 0.02 µg/mL (≈ 0.0352 µM) in the data set with Proteus vulgaris. The MIC amounted to 40 µg/mL (≈ 70.3 µM) in data set [1], 80 µg/mL (≈ 141 µM) in [2], 0.16 µg/mL (≈ 0.281 µM) with Serratia marcescens and 2.5 µg/mL (≈ 4.4 µM) in the data set on Staphylococcus aureus. In addition, the LD100 in the data set “Toxicity (LD100)” (i.v.) is reported as above 500 mg/kg; in “Toxicity (LD100)” (p.o.), above 5000 mg/kg; in “Toxicity (LD100)” (s.c.), above 4000 mg/kg.
With `CO/N=C(\C(=O)N[C@@H]1C(=O)N2C(C(=O)O)=C(CSc3nc(C(=O)O)nn3C)CS[C@H]12)c1csc(N)n1` [Produkt B, (6R,7R)-7-/2-(2-Amino-4-thiazolyl)-2-[(Z)-methoxyimino]acetamido/-3-/[(3-carboxy-1-methyl-1H-1,2,4-triazol-5-yl)thio]methyl/-8-oxo-5-thia-1-azabicyclo[4.2.0]oct-2-en-2-carbonsäure-Dinatriumsalz], the MIC amounted to 10 µg/mL (≈ 18 µM) in the data set on Enterobacter cloacae; 0.08 µg/mL (≈ 0.144 µM) in the data set with Escherichia coli; 0.01 µg/mL (≈ 0.018 µM) with Haemophilus influenzae; 0.0025 µg/mL (≈ 0.00451 µM) in the data set with Neisseria gonorrhoeae; 0.01 µg/mL (≈ 0.018 µM) with Proteus mirabilis; 0.01 µg/mL (≈ 0.018 µM) in the data set on Proteus vulgaris. Moreover, the MIC in data set [1] was 40 µg/mL (≈ 72.1 µM); in [2], 40 µg/mL (≈ 72.1 µM); in the data set with Serratia marcescens it was 0.16 µg/mL (≈ 0.289 µM); with Staphylococcus aureus, 10 µg/mL (≈ 18 µM). In addition, the half-life in the data set “Half-life in the rat” worked out at 22 min. The molecule further came in with an LD100 in “Toxicity (LD100)” (p.o.) above 5000 mg/kg.
On to `CO/N=C(\C(=O)N[C@@H]1C(=O)N2C(C(=O)O)=C(CSc3nc(=O)c(OCOC(=O)C(C)(C)C)nn3C)CS[C@H]12)c1csc(N)n1` [Produkt C, (6R,7R)-7-[2-(2-Amino-4-thiazolyl)-2-((Z)-methoxyimino)acetamido]-3-[[[2,5-dihydro-2-methyl-5-oxo-6-[(pivaloyloxy)methoxy]-as-triazin-3-yl]thio]methyl]-[…]-1-azabicyclo[4.2.0]oct-2-en-2-carbonsäure-Natrium-. salz], for which the MIC with Enterobacter cloacae is 25 µg/mL (≈ 37.4 µM); in the data set with Escherichia coli, 0.1 µg/mL (≈ 0.15 µM); in the data set with Haemophilus influenzae it was 0.04 µg/mL (≈ 0.0598 µM); in the data set on Proteus mirabilis it was 0.4 µg/mL (≈ 0.598 µM); with Proteus vulgaris, 0.2 µg/mL (≈ 0.299 µM); in [1] it was 50 µg/mL (≈ 74.8 µM). The MIC was 50 µg/mL (≈ 74.8 µM) in [2], 3.1 µg/mL (≈ 4.64 µM) in the data set on Serratia marcescens and 1.6 µg/mL (≈ 2.39 µM) with Staphylococcus aureus. For the same molecule, the figures for the LD100 in the data set “Toxicity (LD100)” (i.v.), in “Toxicity (LD100)” (p.o.) and in the data set “Toxicity (LD100)” (s.c.) were above 500 mg/kg, above 5000 mg/kg and above 4000 mg/kg, respectively.
